Tests used:
PEPCK mRNA = assay: Semiquantitative RT-PCR, liver tissue: PEPCK; assay type: in vivo, C57BL/6J mice; details: HFD-fed mice
Protocol: (§1) Experimental Animals: the experiments are conducted under the guidelines of the Institutional Animal Care and Use Committee of Central Taiwan University of Science and Technology. As previously described, four-week-old male C57BL/6J mice (n=63) is purchased from the National Laboratory Animal Breeding and Research Center, Ministry of Science and Technology. After 1-week of acclimatization, mice are designed to initiate the study, and the study lasts for 12 weeks. […] The CON group and high-fat control (HF) group are given with vehicle only. The low-fat diet consisted of fat 10%, whereas the high-fat diet (HFD) consisted of fat 45% (of total energy, % kcal). The compositions of the experimental diets are shown as described. At the end of the study, food is derived from the animals (from 10 p.m. to 10 a.m.). On the next day, the mice are sacrificed, and blood and tissue are collected for analysis. Livers, skeletal muscles, and white adipose tissues (WATs) (including epididymal, mesenteric and retroperitoneal WAT) are excised and weighed, and then immediately stored in a freezer at −80° C. Heparin (30 units/mL) (Sigma) is added to blood samples. Plasma samples are collected by centrifugation at 1600 g for 15 min at 4° C. within 30 min, and plasma is obtained for insulin and leptin level analysis.
(§2) The experiment is performed as in a previously described protocol. Total RNA from the liver tissue is isolated with a Trizol reagent (Molecular Research Center, Inc., Cincinnati, Ohio, USA) according to the manufacturer's directions. Total RNA (1 μg) is reverse transcribed to cDNA with 5 μL of Moloney murine leukemia virus reverse transcriptase (Epicenter, Madison, Wis., USA) as a previously described protocol. […] The relative density of the band is evaluated using AlphaDigiDoc 1201 software (Alpha Innotech Co., San Leandro, Calif., USA). All of the measured PCR products are normalized to the amount of cDNA of GAPDH in each sample.

DGAT2 mRNA = assay: Semiquantitative RT-PCR, liver tissue: DGAT2; assay type: in vivo, C57BL/6J mice; details: HFD-fed mice
Protocol: as §1, §2

HFD-fed C57BL/6J mice [1] = assay: Body weight, food intake and tissue weight in HFD-fed mice; assay type: in vivo; details: for Absolute Tissue Weight BAT / Absolute Tissue Weight EWAT / Absolute Tissue Weight Liver / Absolute Tissue Weight MWAT / Absolute Tissue Weight RWAT / Absolute Tissue Weight Skeletal muscle / weight gain: oral gavage daily for 4 weeks; for weight of visceral fat: vs HF group
Protocol: as §1
Body Weight, Food Intake and Tissue Weight. Throughout the embodiment, body weight and food intake are daily recorded at the same time. Body weight gain is defined as the difference between 1 day and the next day. The pellet food is weighed and placed in a cage food container. After 24 h, the remaining food is weighed and the crumbs are collected as much as possible. Based on the difference between 1 day and the next day, the daily food intake is calculated.

HFD-fed C57BL/6J mice [2] = assay: Blood glucose, HbA1c, blood lipids, insulin and leptin levels in HFD-fed mice; assay type: in vivo; details: for Blood Profiles FFA / Blood Profiles HDL-C / Blood Profiles HbA1c / Blood Profiles LDL-C: oral gavage daily for 4 weeks; for blood glucose levels / blood insulin levels / blood leptin levels / blood total cholesterol (TC) levels / blood triglyceride (TG) level: vs HF group
Protocol: as §1
Blood Glucose and HbA1c Levels. Blood samples (0.8 mL) are collected from the retro-orbital sinuses of fasting mice, and glucose level is measured by the glucose oxidase method (model 1500; Sidekick Glucose Analyzer; YSI Inc., Yellow Springs, Ohio, USA). Percent HbA1c is detected with a Hemoglobin A1c kit (BioSystems S.A., Barcelona, Spain). Plasma triglycerides (TG), total cholesterol (TC), free fatty acids (FFA), high-density lipoprotein cholesterol (HDL-C), and low density lipoprotein cholesterol (LDL-C) are determined using commercial assay kits (Triglycerides-E test, Cholesterol-E test, and FFA-C test, Wako Pure Chemical, Osaka, Japan; HDL-C-test and LDL-C-test, Roche Diagnostics GmbH, Indianapolis, USA) according to their instructions. A mouse insulin ELISA kit (Sibayagi, Gunma, Japan) and mouse leptin ELISA kit (Morinaga, Yokohama, Japan) are used to measure blood insulin and leptin levels, respectively.

## CC(C)[C@@H](C)C=C[C@@H](C)[C@H]1CC[C@H]2C3=CCC4C[C@@H](O)CC[C@]4(C)C3=CC[C@]12C (stereo partly drawn) [ergostatrien-3β-ol, ergosta-7,9(11),22-trien-3β-ol]
PEPCK mRNA; 10 mg/kg/day
  mRNA level of PEPCK: decreased
PEPCK mRNA; 20 mg/kg/day
  mRNA level of PEPCK: decreased
PEPCK mRNA; 40 mg/kg/day
  mRNA level of PEPCK: decreased
DGAT2 mRNA; 10 mg/kg/day
  mRNA level of DGAT2: decreased
DGAT2 mRNA; 20 mg/kg/day
  mRNA level of DGAT2: decreased
DGAT2 mRNA; 40 mg/kg/day
  mRNA level of DGAT2: decreased
HFD-fed C57BL/6J mice [1]; all treated groups compared with HF mice
  food intake (consumption of high-fat diet): similarly
HFD-fed C57BL/6J mice [1]; 10 mg/kg/day
  Absolute Tissue Weight BAT: 0.160 ± 0.007 g
  Absolute Tissue Weight EWAT: 0.853 ± 0.031 g
  Absolute Tissue Weight Liver: 0.813 ± 0.025 g
  Absolute Tissue Weight MWAT: 0.276 ± 0.032 g
  Absolute Tissue Weight RWAT: 0.281 ± 0.016 g
  Absolute Tissue Weight Skeletal muscle: 0.781 ± 0.034 g
  weight gain: 1.30 ± 0.39 g
  weight of visceral fat: decrease
HFD-fed C57BL/6J mice [1]; 20 mg/kg/day
  Absolute Tissue Weight BAT: 0.143 ± 0.016 g
  Absolute Tissue Weight EWAT: 0.774 ± 0.057 g
  Absolute Tissue Weight Liver: 0.819 ± 0.025 g
  Absolute Tissue Weight MWAT: 0.276 ± 0.032 g
  Absolute Tissue Weight RWAT: 0.283 ± 0.025 g
  Absolute Tissue Weight Skeletal muscle: 1.167 ± 0.045 g
  weight gain: 1.13 ± 0.20 g
  weight of visceral fat: decrease
HFD-fed C57BL/6J mice [1]; 40 mg/kg/day
  Absolute Tissue Weight BAT: 0.144 ± 0.013 g
  Absolute Tissue Weight EWAT: 0.736 ± 0.070 g
  Absolute Tissue Weight Liver: 0.796 ± 0.041 g
  Absolute Tissue Weight MWAT: 0.244 ± 0.024 g
  Absolute Tissue Weight RWAT: 0.243 ± 0.041 g
  Absolute Tissue Weight Skeletal muscle: 1.351 ± 0.153 g
  weight gain: 0.37 ± 0.38 g
  weight of visceral fat: decrease
HFD-fed C57BL/6J mice [2]; dose not specified
  levels of TG (circulating): moderate reduction
HFD-fed C57BL/6J mice [2]; 10 mg/kg/day
  Blood Profiles FFA: 1.06 ± 0.10 meq/L
  Blood Profiles HDL-C: 82.2 ± 3.9 mg/dL
  Blood Profiles HbA1c: 5.8 ± 0.7 %
  blood glucose levels: significantly reduce
  blood insulin levels: decrease
  blood leptin levels: decrease
  blood total cholesterol (TC) levels: lower
  blood triglyceride (TG) level: decrease
HFD-fed C57BL/6J mice [2]; 20 mg/kg/day
  Blood Profiles FFA: 1.05 ± 0.09 meq/L
  Blood Profiles HDL-C: 83.0 ± 2.0 mg/dL
  Blood Profiles HbA1c: 5.7 ± 0.5 %
  Blood Profiles LDL-C: 103.7 ± 10.8 mg/dL
  blood glucose levels: significantly reduce
  blood insulin levels: decrease
  blood leptin levels: decrease
  blood total cholesterol (TC) levels: lower
  blood triglyceride (TG) level: decrease
HFD-fed C57BL/6J mice [2]; 40 mg/kg/day
  Blood Profiles FFA: 1.03 ± 0.05 meq/L
  Blood Profiles HDL-C: 83.8 ± 1.6 mg/dL
  Blood Profiles HbA1c: 5.1 ± 0.3 %
  Blood Profiles LDL-C: 86.8 ± 11.5 mg/dL
  blood glucose levels: significantly reduce
  blood insulin levels: decrease
  blood leptin levels: decrease
  blood total cholesterol (TC) levels: lower
  blood triglyceride (TG) level: decrease

Reference: US9757393B2 (priority 2015, dated 2017)
